What all share (experiment): relative viability (nuclei count vs DMSO), 5 days (fraction); higher = more cells survive
Compound in the assay “Dabrafenib + Crizotinib”: CC(C)(C)c1nc(-c2cccc(NS(=O)(=O)c3c(F)cccc3F)c2F)c(-c2ccnc(N)n2)s1 [Dabrafenib] + C[C@@H](Oc1cc(-c2cnn(C3CCNCC3)c2)cnc1N)c1c(Cl)ccc(F)c1Cl [Crizotinib] (partner 1 µM)
The method in brief: (§1)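 Nuclei were stained with Hoechst during a one-step fixation (final 0.05% Triton X-100, 1% formaldehyde, 1 ug/ml Hoechst) carried out 5 days after dosing, then counted on 4× images. The cells, lung cancer lines in 1536-well plates, had been dosed by pin tool the day after seeding with one drug alone or a fixed anchor-drug dose plus five library-drug doses (not always all listed) in √10 steps. Relative viability is the nuclei count in treated wells divided by that in vehicle wells, and each value is the median of duplicate plates.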

Compound in the assay “Dabrafenib + Pemetrexed”: CC(C)(C)c1nc(-c2cccc(NS(=O)(=O)c3c(F)cccc3F)c2F)c(-c2ccnc(N)n2)s1 [Dabrafenib] + Nc1nc2[nH]cc(CCc3ccc(C(=O)N[C@@H](CCC(=O)O)C(=O)O)cc3)c2c(=O)[nH]1 [Pemetrexed] (partner 0.2 µM)
An outline of the steps:
as §1

Compound in the assay “Dabrafenib + Luminespib”: CC(C)(C)c1nc(-c2cccc(NS(=O)(=O)c3c(F)cccc3F)c2F)c(-c2ccnc(N)n2)s1 [Dabrafenib] + CCNC(=O)c1noc(-c2cc(C(C)C)c(O)cc2O)c1-c1ccc(CN2CCOCC2)cc1 [Luminespib] (partner 0.01 µM)
The method in brief: as §1

Compound in the assay “VX-702 + OSI-027”: NC(=O)c1ccc(N(C(N)=O)c2c(F)cccc2F)nc1-c1ccc(F)cc1F [VX-702] + COc1cccc2cc(-c3nc([C@H]4CC[C@H](C(=O)O)CC4)n4ncnc(N)c34)[nH]c12 [OSI-027] (partner 0.5 µM)
An outline of the steps: as §1

Experimental findings from the supplement of paper PMC10307832 are described below.

As to NCI-H1563, the relative viability in the assay with Dabrafenib + Crizotinib (first compound 0.003 µM) came out at 0.865; with Dabrafenib + Crizotinib (first compound 0.009487 µM), 0.933; in the assay with Dabrafenib + Crizotinib (first compound 0.03 µM) it was 0.868; in the assay with Dabrafenib + Crizotinib (first compound 0.09487 µM), 0.908; with Dabrafenib + Crizotinib (first compound 0.3 µM) it was 0.953; in the assay with Dabrafenib + Pemetrexed (first compound 0.003 µM), 0.667. Also, the relative viability stood at 0.836 in the assay with Dabrafenib + Pemetrexed (first compound 0.009487 µM); 0.591 with Dabrafenib + Pemetrexed (first compound 0.03 µM); 0.822 in the assay with Dabrafenib + Pemetrexed (first compound 0.09487 µM); 0.744 in the assay with Dabrafenib + Pemetrexed (first compound 0.3 µM); 0.48 in the assay with Dabrafenib + Luminespib (first compound 0.003 µM); 0.491 in the assay with Dabrafenib + Luminespib (first compound 0.009487 µM). In addition, the relative viability was found to be 0.508 with Dabrafenib + Luminespib (first compound 0.03 µM); 0.515 in the assay with Dabrafenib + Luminespib (first compound 0.09487 µM); 0.574 with Dabrafenib + Luminespib (first compound 0.3 µM); 0.77 with VX-702 + OSI-027 (first compound 0.02 µM); 0.748 with VX-702 + OSI-027 (first compound 0.2 µM); 0.738 with VX-702 + OSI-027 (first compound 0.6325 µM). Besides, the relative viability in the assay with VX-702 + OSI-027 (first compound 2 µM) was found to be 0.722.

With NCI-H1650, the relative viability with Dabrafenib + Crizotinib (first compound 0.003 µM) came to 1.04; with Dabrafenib + Crizotinib (first compound 0.009487 µM), 1.21; with Dabrafenib + Crizotinib (first compound 0.03 µM) it was 0.907; in the assay with Dabrafenib + Crizotinib (first compound 0.09487 µM), 0.995; in the assay with Dabrafenib + Crizotinib (first compound 0.3 µM), 1.11; in the assay with Dabrafenib + Pemetrexed (first compound 0.003 µM), 0.364. The relative viability with Dabrafenib + Pemetrexed (first compound 0.009487 µM) came to 0.391; with Dabrafenib + Pemetrexed (first compound 0.03 µM) it was 0.389; in the assay with Dabrafenib + Pemetrexed (first compound 0.09487 µM), 0.389; with Dabrafenib + Pemetrexed (first compound 0.3 µM) it was 0.419; with Dabrafenib + Luminespib (first compound 0.003 µM), 0.172; in the assay with Dabrafenib + Luminespib (first compound 0.009487 µM) it was 0.201. Further, the relative viability with Dabrafenib + Luminespib (first compound 0.03 µM) is 0.229; with Dabrafenib + Luminespib (first compound 0.09487 µM), 0.221; with Dabrafenib + Luminespib (first compound 0.3 µM), 0.188; in the assay with VX-702 + OSI-027 (first compound 0.02 µM), 0.635; with VX-702 + OSI-027 (first compound 0.2 µM), 0.652; in the assay with VX-702 + OSI-027 (first compound 0.6325 µM), 0.806. Further, the relative viability with VX-702 + OSI-027 (first compound 2 µM) worked out at 0.541.

Regarding NCI-H1651, the relative viability with Dabrafenib + Crizotinib (first compound 0.003 µM) was determined as 0.85; with Dabrafenib + Crizotinib (first compound 0.009487 µM), 0.875; in the assay with Dabrafenib + Crizotinib (first compound 0.03 µM), 0.859; in the assay with Dabrafenib + Crizotinib (first compound 0.09487 µM) it was 0.785; with Dabrafenib + Crizotinib (first compound 0.3 µM), 0.786; with Dabrafenib + Pemetrexed (first compound 0.003 µM), 0.575. In addition, the relative viability with Dabrafenib + Pemetrexed (first compound 0.009487 µM) was found to be 0.555; in the assay with Dabrafenib + Pemetrexed (first compound 0.03 µM), 0.525; in the assay with Dabrafenib + Pemetrexed (first compound 0.09487 µM), 0.416; with Dabrafenib + Pemetrexed (first compound 0.3 µM), 0.613; with Dabrafenib + Luminespib (first compound 0.003 µM), 0.65; with Dabrafenib + Luminespib (first compound 0.009487 µM), 0.87. Moreover, the relative viability with Dabrafenib + Luminespib (first compound 0.03 µM) was 0.789; in the assay with Dabrafenib + Luminespib (first compound 0.09487 µM), 0.831; with Dabrafenib + Luminespib (first compound 0.3 µM), 0.608; in the assay with VX-702 + OSI-027 (first compound 0.02 µM), 0.733; in the assay with VX-702 + OSI-027 (first compound 0.2 µM) it was 0.685; with VX-702 + OSI-027 (first compound 0.6325 µM) it was 0.786. For the same cell line, the relative viability with VX-702 + OSI-027 (first compound 2 µM) is 0.652.

NCI-H1666: the relative viability in the assay with Dabrafenib + Crizotinib (first compound 0.003 µM) is 0.988; in the assay with Dabrafenib + Crizotinib (first compound 0.03 µM) it was 1.09; with Dabrafenib + Crizotinib (first compound 0.09487 µM) it was 0.87; with Dabrafenib + Crizotinib (first compound 0.3 µM) it was 1.17; in the assay with Dabrafenib + Pemetrexed (first compound 0.003 µM), 0.787; in the assay with Dabrafenib + Pemetrexed (first compound 0.009487 µM) it was 0.864. The relative viability with Dabrafenib + Pemetrexed (first compound 0.03 µM) worked out at 0.877; with Dabrafenib + Pemetrexed (first compound 0.09487 µM), 0.97; with Dabrafenib + Pemetrexed (first compound 0.3 µM), 0.865; in the assay with Dabrafenib + Luminespib (first compound 0.003 µM), 0.988; with Dabrafenib + Luminespib (first compound 0.009487 µM), 0.995; with Dabrafenib + Luminespib (first compound 0.03 µM), 1.04. Also, the relative viability with Dabrafenib + Luminespib (first compound 0.09487 µM) was 0.997; with Dabrafenib + Luminespib (first compound 0.3 µM) it was 1.11; in the assay with VX-702 + OSI-027 (first compound 0.02 µM) it was 0.937; with VX-702 + OSI-027 (first compound 0.6325 µM) it was 0.789; with VX-702 + OSI-027 (first compound 2 µM), 0.635.

Take NCI-H1734: the relative viability in the assay with Dabrafenib + Crizotinib (first compound 0.009487 µM) was 0.702; with Dabrafenib + Crizotinib (first compound 0.03 µM), 0.475; in the assay with Dabrafenib + Crizotinib (first compound 0.09487 µM) it was 0.696; with Dabrafenib + Crizotinib (first compound 0.3 µM), 0.687; with Dabrafenib + Pemetrexed (first compound 0.009487 µM) it was 0.417; in the assay with Dabrafenib + Pemetrexed (first compound 0.03 µM), 0.397. For the same cell line, the relative viability with Dabrafenib + Pemetrexed (first compound 0.09487 µM) came out at 0.421; with Dabrafenib + Pemetrexed (first compound 0.3 µM), 0.411; in the assay with Dabrafenib + Luminespib (first compound 0.009487 µM) it was 0.175; in the assay with Dabrafenib + Luminespib (first compound 0.03 µM), 0.207; with Dabrafenib + Luminespib (first compound 0.09487 µM), 0.203; with Dabrafenib + Luminespib (first compound 0.3 µM), 0.198. Also, the relative viability in the assay with VX-702 + OSI-027 (first compound 0.02 µM) worked out at 0.635; with VX-702 + OSI-027 (first compound 0.2 µM), 0.591; in the assay with VX-702 + OSI-027 (first compound 0.6325 µM), 0.527; with VX-702 + OSI-027 (first compound 2 µM), 0.45.

Consider NCI-H1755, for which the relative viability in the assay with Dabrafenib + Crizotinib (first compound 0.003 µM) worked out at 0.896; with Dabrafenib + Crizotinib (first compound 0.009487 µM), 0.89; with Dabrafenib + Crizotinib (first compound 0.03 µM) it was 0.648; in the assay with Dabrafenib + Crizotinib (first compound 0.09487 µM), 0.824; in the assay with Dabrafenib + Crizotinib (first compound 0.3 µM), 0.884; in the assay with Dabrafenib + Pemetrexed (first compound 0.003 µM), 0.36. Also, the relative viability worked out at 0.427 with Dabrafenib + Pemetrexed (first compound 0.009487 µM); 0.395 with Dabrafenib + Pemetrexed (first compound 0.03 µM); 0.47 with Dabrafenib + Pemetrexed (first compound 0.09487 µM); 0.424 with Dabrafenib + Pemetrexed (first compound 0.3 µM); 0.407 in the assay with Dabrafenib + Luminespib (first compound 0.003 µM); 0.542 with Dabrafenib + Luminespib (first compound 0.009487 µM). Moreover, the relative viability with Dabrafenib + Luminespib (first compound 0.03 µM) came out at 0.434; with Dabrafenib + Luminespib (first compound 0.09487 µM) it was 0.519; with Dabrafenib + Luminespib (first compound 0.3 µM) it was 0.577; in the assay with VX-702 + OSI-027 (first compound 0.02 µM), 0.857; in the assay with VX-702 + OSI-027 (first compound 0.2 µM), 0.829; with VX-702 + OSI-027 (first compound 0.6325 µM) it was 0.721. Also, the relative viability with VX-702 + OSI-027 (first compound 2 µM) was determined as 0.718.

In the case of NCI-H1792, the relative viability with Dabrafenib + Crizotinib (first compound 0.009487 µM) amounted to 0.974; in the assay with Dabrafenib + Crizotinib (first compound 0.03 µM), 0.891; with Dabrafenib + Crizotinib (first compound 0.09487 µM) it was 0.833; with Dabrafenib + Crizotinib (first compound 0.3 µM), 0.873; with Dabrafenib + Pemetrexed (first compound 0.009487 µM), 1.03; with Dabrafenib + Pemetrexed (first compound 0.03 µM) it was 0.622. Further, the relative viability turned out to be 0.723 with Dabrafenib + Pemetrexed (first compound 0.09487 µM); 0.525 with Dabrafenib + Pemetrexed (first compound 0.3 µM); 0.474 with Dabrafenib + Luminespib (first compound 0.009487 µM); 0.412 with Dabrafenib + Luminespib (first compound 0.03 µM); 0.423 with Dabrafenib + Luminespib (first compound 0.09487 µM); 0.538 with Dabrafenib + Luminespib (first compound 0.3 µM). In addition, the relative viability in the assay with VX-702 + OSI-027 (first compound 0.02 µM) worked out at 0.667; with VX-702 + OSI-027 (first compound 0.2 µM), 0.669; with VX-702 + OSI-027 (first compound 0.6325 µM), 0.682; with VX-702 + OSI-027 (first compound 2 µM), 0.683.

NCI-H1915: the relative viability worked out at 0.994 with Dabrafenib + Crizotinib (first compound 0.003 µM); 0.893 in the assay with Dabrafenib + Crizotinib (first compound 0.009487 µM); 0.721 with Dabrafenib + Crizotinib (first compound 0.03 µM); 0.752 with Dabrafenib + Crizotinib (first compound 0.09487 µM); 0.731 in the assay with Dabrafenib + Crizotinib (first compound 0.3 µM); 0.507 with Dabrafenib + Pemetrexed (first compound 0.003 µM). In addition, the relative viability is 0.451 with Dabrafenib + Pemetrexed (first compound 0.009487 µM); 0.457 with Dabrafenib + Pemetrexed (first compound 0.03 µM); 0.272 with Dabrafenib + Pemetrexed (first compound 0.09487 µM); 0.372 with Dabrafenib + Pemetrexed (first compound 0.3 µM); 0.981 with Dabrafenib + Luminespib (first compound 0.003 µM); 0.706 in the assay with Dabrafenib + Luminespib (first compound 0.009487 µM). For the same cell line, the relative viability with Dabrafenib + Luminespib (first compound 0.03 µM) was determined as 0.61; with Dabrafenib + Luminespib (first compound 0.09487 µM) it was 0.523; with Dabrafenib + Luminespib (first compound 0.3 µM), 0.62; with VX-702 + OSI-027 (first compound 0.02 µM) it was 0.642; with VX-702 + OSI-027 (first compound 0.2 µM), 0.587; with VX-702 + OSI-027 (first compound 0.6325 µM), 0.595. Further, the relative viability with VX-702 + OSI-027 (first compound 2 µM) was 0.67.
